For experiment [1], the target named is T1, AfChiB1 (Aspergillus fumigatus, UniProt Q873X9). The experiment in a line: biochemical. The experiment is classed as biochemical. An excerpt:
AfChiB1 was expressed, purified and inhibition studies performed as previously described [F. V. Rao, D. R. Houston, R. G. Boot, J. M. F. G. Aerts, M. Hodkinson, D. J. Adams, K. Shiomi, S. Omura, and D. M. F. van Aalten, Specificity and affinity of natural product cyclopentapeptide inhibitors against Aspergillus fumigatus, human and bacterial chitinases, Chemistry & Biology, 12, 65-76 (2005)].
Briefly, AfChiB1 was overexpressed as a GST-fusion protein in E. coli and purified using a combination of affinity and size-exclusion chromatography.
AfChiB1 inhibition was studied using the fluorogenic substrate 4-methylumbelliferyl-β-D-N,N′-diacetylchitobiose (4MU-GlcNAc2; Sigima). Briefly, in a final volume of 50 μl, 2 nM of enzyme was incubated with 20 μM substrate in McIlvain buffer (100 mM citric acid, 200 mM sodium phosphate, pH 5.5) containing 0.1 mg/ml BSA, for 10 min at 37° C. in the presence of different concentration of inhibitors. After the addition of 25 μl of 3 M glycine-NaOH, pH 10.3, the fluorescence of the liberated 4-methylumbelliferone (4MU) was quantified using a Flx 800 microtitrepiate fluorescence reader (Bio-Tek Instruments Inc.), with excitation and emission wavelengths of 360 nm and 460 nm, respectively, using 40 nm slits. Experiments were performed in triplicate. […]
The mode of action was determined by plotting the data as Lineweaver-Burk plots, and by fitting all data to the standard competitive inhibition equation with the GraFit software [R. J. Leatherbarrow, GraFit Version 5, Erithacus Software Ltd., Horley, U.K., (2001)].
The compounds according to an embodiment of the present invention were prepared according to the following methods, and further evaluated as inhibitors against AfChiB using the fluorescence-based assay described herein using 4methylumbelliferyl β-D-N,N-deacetyl-chitobioside as substrate. The assay results are shown in the accompanying tables 3-6.

Experiment [2] has as its target cellulase from Aspergillus niger. The experiment in a line: Cellulase assay, 4-methylumbelliferyl-β-D-cellobioside. It is filed as biochemical. The conditions noted are these: 5 nM enzyme, 20 μM substrate, 30 min at 37° C. As to the method: (§1) Additionally, for comparison, inhibition studies were performed on celluase from Aspergillus niger, phosphodiesterase 4A and lysozyme.
Commercially available […] from Aspergillus niger (Sigma: C-1184) was assayed, using the fluorogenic substrate 4-methylumbelliferyl-β-D-cellobioside (Sigma M-6018). In a final volume of 50 μl, 5 nM of enzyme was incubated with 20 μM substrate in McIlvain buffer containing 0.1 mg/ml BSA, for 30 min at 37° C. in the presence of different concentration of inhibitors. After the addition of 25 μl of 3 M glycine-NaOH, pH 10.3, the fluorescence of the liberated 4-methylumbelliferone (4MU) was quantified using an Flx 800 microtitreplate fluorescence reader (Bio-Tek Instruments Inc.), with excitation and emission wavelengths of 360 nm and […], respectively, using 40 nm slits. Experiments were performed in triplicate. Production of 4MU was linear with time for the incubation period used, and less than 10% of available substrate was hydrolyzed.

The target in experiment [3] is T2, Chicken egg white lysozyme (Gallus gallus, UniProt P00698).
T2 construct: Chicken egg white lysozyme and its substrate; purchased Molecular probes EnzCheck Lysozyme kit; host or cells: chicken egg white
T2 sequence (P00698 19-147): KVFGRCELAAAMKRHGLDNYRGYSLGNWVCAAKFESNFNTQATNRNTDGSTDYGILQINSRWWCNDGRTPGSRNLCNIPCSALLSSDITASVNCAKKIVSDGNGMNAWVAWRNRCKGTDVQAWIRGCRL
In words: Lysozyme assay, EnzCheck Lysozyme kit. The experiment is classed as biochemical. The conditions noted are these: 500 μM inhibitor. As to the method: as §1
Lysozyme was assayed using the EnzCheck Lysozyme kit from Molecular probes as described by the manufacturer. Chicken egg white lysozyme and its substrate, fluorescein labeled Micrococcus lysodeikyius cell wall (DQ Lysozyme substrate) were used to determine compound inhibition. Briefly, 6.25 units of lysozyme were incubated with 25 μg of DQ substrate with or without various concentrations of inhibitor in a total volume of 100 μl at 37° C. for 30 minutes. The fluorescence was determined using excitation and emission wavelengths of 360 nm and 460 nm, respectively. The potency of inhibitors (IC50) was determined from a dose-response curve. Experiments were performed in triplicate.

The target in a further experiment is H.AMCase (human AMCase) (Homo sapiens, UniProt Q9BZP6). In words: Further inhibition studies, human AMCase (Table 2). The experiment is classed as biochemical. An excerpt: (§2) Inhibition Studies on Human and Mouse AMCase and Chitotriosidase
H.AMCase (human AMCase), sequence (Q9BZP6 22-476): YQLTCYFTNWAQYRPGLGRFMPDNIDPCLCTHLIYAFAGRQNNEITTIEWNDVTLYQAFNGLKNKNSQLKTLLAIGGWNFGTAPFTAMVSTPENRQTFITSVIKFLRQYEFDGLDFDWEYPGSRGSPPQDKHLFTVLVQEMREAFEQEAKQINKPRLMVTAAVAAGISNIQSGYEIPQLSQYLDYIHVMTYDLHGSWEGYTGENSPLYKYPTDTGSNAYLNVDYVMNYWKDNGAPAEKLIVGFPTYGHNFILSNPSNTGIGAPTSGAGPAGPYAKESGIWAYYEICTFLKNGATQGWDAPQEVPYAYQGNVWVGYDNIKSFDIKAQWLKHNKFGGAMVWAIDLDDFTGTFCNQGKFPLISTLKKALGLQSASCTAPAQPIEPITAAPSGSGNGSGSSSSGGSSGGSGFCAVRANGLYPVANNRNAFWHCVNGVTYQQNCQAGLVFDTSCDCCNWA
The target in another experiment is M.AMCase (mouse AMCase) (Mus musculus, UniProt Q91XA9). In words: Further inhibition studies, mouse AMCase (Table 2). The experiment is classed as biochemical.
M.AMCase (mouse AMCase), sequence (Q91XA9 22-473): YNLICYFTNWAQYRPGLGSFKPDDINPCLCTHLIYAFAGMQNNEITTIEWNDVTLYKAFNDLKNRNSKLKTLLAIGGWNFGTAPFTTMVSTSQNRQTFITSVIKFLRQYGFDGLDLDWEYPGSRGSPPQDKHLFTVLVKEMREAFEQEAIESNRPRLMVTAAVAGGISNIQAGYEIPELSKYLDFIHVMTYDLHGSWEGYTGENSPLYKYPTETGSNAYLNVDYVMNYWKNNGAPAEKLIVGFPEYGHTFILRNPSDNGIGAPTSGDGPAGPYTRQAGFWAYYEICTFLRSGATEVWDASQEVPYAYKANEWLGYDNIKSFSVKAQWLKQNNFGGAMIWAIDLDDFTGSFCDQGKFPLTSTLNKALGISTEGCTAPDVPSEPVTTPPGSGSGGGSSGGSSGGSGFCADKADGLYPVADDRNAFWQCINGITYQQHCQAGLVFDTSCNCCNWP
Excerpt: as §2

Experiment [4] addresses M.Chito (mouse chitotriosidase) (Mus musculus, UniProt Q9D7Q1). In words: Further inhibition studies, mouse chitotriosidase (Table 2). It is filed as biochemical.
Excerpt: as §2

In experiment [5] the target is T1, AfChiB1. In words: AfChiB1 binding (Kd).
In another experiment the target is T3, human chitotriosidase (Homo sapiens, UniProt Q13231).
T3 construct: made in house; host or cells: HEK 293 (transient transfection, supernatant)
T3 sequence (Q13231 22-466): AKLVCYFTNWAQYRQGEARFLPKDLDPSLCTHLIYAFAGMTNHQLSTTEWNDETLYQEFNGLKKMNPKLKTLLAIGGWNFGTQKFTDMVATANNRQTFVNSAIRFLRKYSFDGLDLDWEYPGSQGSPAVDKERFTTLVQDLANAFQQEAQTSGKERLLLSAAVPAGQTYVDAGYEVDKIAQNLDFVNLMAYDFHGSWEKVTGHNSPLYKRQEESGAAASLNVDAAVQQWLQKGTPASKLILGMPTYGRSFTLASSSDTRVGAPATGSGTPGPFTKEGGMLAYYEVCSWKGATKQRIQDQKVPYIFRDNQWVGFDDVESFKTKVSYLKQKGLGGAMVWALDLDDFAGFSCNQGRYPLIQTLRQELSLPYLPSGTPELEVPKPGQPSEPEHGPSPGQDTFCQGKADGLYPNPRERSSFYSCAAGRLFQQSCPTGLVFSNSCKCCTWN
In words: Human chitotriosidase inhibition, 4MU-GlcNAc2 chitinase assay. It is filed as biochemical. The conditions noted are these: 22 μM substrate, 1 nM enzyme, 30° C. for 30 minutes; read-out: hCHT IC50.

Another experiment concerns the target T4, human AMCase (Homo sapiens, UniProt Q9BZP6).
T4 construct: made in house; host or cells: HEK 293 (transient transfection, supernatant)
The experiment in a line: Human AMCase inhibition, 4MU-GlcNAc2 chitinase assay. The conditions noted are these: 1 mM inhibitor. It is filed as biochemical.

In experiment [6] the target is H.Chito (human chitotriosidase) (Homo sapiens, UniProt Q13231). In words: Further inhibition studies, human chitotriosidase (Table 2). The experiment is classed as biochemical.
H.Chito (human chitotriosidase), sequence (Q13231 22-466): as above
Excerpt: as §2

Experiment [7] addresses Phosphodiesterase 4A (PDE4A) (Homo sapiens, UniProt P27815). The conditions noted are these: PDE-SPA assay, result in words.
Experimental: The assay reaction contained 100 nM [^3H]cAMP (1 μCi/ml) in a buffer containing 20 mM HEPES (pH 7.5), 10 mM MgCl2, 100 mM EDTA, 100 mM KCl and 2 μl of test compound in DMSO at 30° C. The reaction was initiated by addition of enzyme for 10 min. The potency of inhibitors (IC50) was determined from a dose-response curve. Experiments were performed with n=6.
Setting [8] is: Table 5, N3 compounds, against AfChiB, read-out: IC50.
The mark [9] stands for this setting: 2 nM enzyme, 20 μM substrate, pH 5.5, 10 min at 37° C., read-out: AfChiB1 IC50.
[10] abbreviates: Table 6, N7 compounds, against AfChiB, read-out: IC50.
Setting [11] is: Trio substrate, pH 5.2, read-out: H.Chito Trio pH 5.2 (IC50).
The mark [12] stands for this setting: human AMCase, Bio substrate, pH 4.5, read-out: H.AMCase Bio pH 4.5 (IC50).
Where [13] appears, read: mouse AMCase, Bio substrate, pH 4.5, read-out: M.AMCase Bio pH 4.5 (IC50).
[14] abbreviates: mouse chitotriosidase, Bio substrate, pH 5.2, read-out: M.Chito Bio pH 5.2 (IC50).

Like-named read-outs stand apart in the source and are kept apart here.

M.Chito (mouse chitotriosidase), sequence (Q9D7Q1 22-464): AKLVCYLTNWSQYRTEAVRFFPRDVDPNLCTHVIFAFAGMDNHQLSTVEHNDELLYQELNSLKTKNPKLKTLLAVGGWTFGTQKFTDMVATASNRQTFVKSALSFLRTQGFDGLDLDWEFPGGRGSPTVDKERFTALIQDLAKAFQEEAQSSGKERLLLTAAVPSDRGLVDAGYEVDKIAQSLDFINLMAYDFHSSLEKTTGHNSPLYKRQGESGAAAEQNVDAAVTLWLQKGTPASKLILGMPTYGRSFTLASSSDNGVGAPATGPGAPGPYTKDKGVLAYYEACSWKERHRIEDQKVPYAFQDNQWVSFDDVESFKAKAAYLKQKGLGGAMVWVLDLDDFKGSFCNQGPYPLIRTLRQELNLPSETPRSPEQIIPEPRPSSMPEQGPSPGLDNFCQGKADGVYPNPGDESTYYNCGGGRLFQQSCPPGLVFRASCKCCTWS
T4 sequence (Q9BZP6 22-476): as the sequence (Q9BZP6 22-476) above
Phosphodiesterase 4A (PDE4A), sequence (P27815 whole entry): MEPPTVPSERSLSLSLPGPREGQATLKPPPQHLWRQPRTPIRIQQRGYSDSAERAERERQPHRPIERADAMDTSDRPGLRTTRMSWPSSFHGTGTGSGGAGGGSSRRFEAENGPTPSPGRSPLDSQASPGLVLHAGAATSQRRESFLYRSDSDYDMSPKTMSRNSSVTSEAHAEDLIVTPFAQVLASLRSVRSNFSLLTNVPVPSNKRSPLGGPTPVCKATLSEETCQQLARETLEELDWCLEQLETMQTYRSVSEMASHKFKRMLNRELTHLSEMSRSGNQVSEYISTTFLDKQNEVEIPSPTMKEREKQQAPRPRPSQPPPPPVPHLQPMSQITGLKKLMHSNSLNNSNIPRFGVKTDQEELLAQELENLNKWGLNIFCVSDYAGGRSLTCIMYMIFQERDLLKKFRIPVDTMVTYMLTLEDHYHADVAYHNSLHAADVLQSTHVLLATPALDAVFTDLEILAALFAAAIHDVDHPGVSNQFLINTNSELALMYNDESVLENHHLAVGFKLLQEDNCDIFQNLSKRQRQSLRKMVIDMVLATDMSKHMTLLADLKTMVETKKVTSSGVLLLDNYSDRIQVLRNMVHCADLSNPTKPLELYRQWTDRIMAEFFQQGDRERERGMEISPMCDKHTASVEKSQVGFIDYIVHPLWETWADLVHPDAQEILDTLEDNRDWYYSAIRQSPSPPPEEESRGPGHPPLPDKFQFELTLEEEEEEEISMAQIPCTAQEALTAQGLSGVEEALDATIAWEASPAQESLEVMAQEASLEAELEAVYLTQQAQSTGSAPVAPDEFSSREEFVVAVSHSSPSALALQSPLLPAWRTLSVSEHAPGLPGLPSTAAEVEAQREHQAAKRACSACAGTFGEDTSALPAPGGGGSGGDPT

Usually IC50 stands for the midpoint of a concentration-inhibition curve. As for `Cn1cnc2[nH]c(=O)n(CCCn3c(=O)c4c(ncn4C)n(C)c3=O)c(=O)c21` [Compound 9], the half-maximal inhibitory concentration (IC50) at AfChiB1 [1] (setting [8]) amounted to 0.086 µM.
Consider `Cn1c(=O)c2[nH]cnc2n(C)c1=O` [theophylline], for which the IC50 was 1500 µM on AfChiB1 [1] (setting [9]); 1010 ± 159 µM in experiment [2]; approximately 2000 µM against H.AMCase (human AMCase); approximately 1600 µM against M.AMCase (mouse AMCase); more than 2000 µM in experiment [4]. Also, the “Egg white lysozyme activity at 500 μM” value in [3] was 100%.
With `CC(C)n1c(=O)n(CCCn2c(=O)c3c(ncn3C)n(C)c2=O)c(=O)c2c1ncn2C` [Compound 12], the IC50 at AfChiB1 [1] (setting [8]) is 0.52 µM.
Consider `COC(=O)C=CCn1cnc2c1c(=O)n(CCCn1c(=O)c3c(ncn3C)n(C)c1=O)c(=O)n2C` [Compound 24], for which the IC50 at AfChiB1 [1] (setting [10]) amounted to 0.16 µM.
On to `Cn1cnc2c1c(=O)n(CCCn1c(=O)c3c(ncn3CCCCC(=O)O)n(C)c1=O)c(=O)n2C` [Compound 23], for which, on AfChiB1 [1] (setting [10]), the IC50 was 0.36 µM.
`Cn1cnc2c1c(=O)n(CCCn1c(=O)c3c(ncn3C)n(CCN)c1=O)c(=O)n2C` [Compound 13]: the IC50 on AfChiB1 [1] (setting [8]) was found to be 0.078 µM.
Still for that read-out and setting: then `Cn1cnc2c1c(=O)n(CCCn1c(=O)c3c(ncn3C)n(CCCN)c1=O)c(=O)n2C` [Compound 15], with 0.44 µM.
Take `COC(=O)CCCn1cnc2c1c(=O)n(CCCn1c(=O)c3c(ncn3C)n(C)c1=O)c(=O)n2C` [Compound 20]: the IC50 on AfChiB1 [1] (setting [10]) stood at 0.14 µM.
For orientation: Ki means the equilibrium dissociation constant of an inhibitor or competing ligand from its target. A word on the Kd: it is a measure of binding affinity in units of concentration. On to `CC(=O)CCCCn1c(=O)c2c(ncn2C)n(C)c1=O` [pentoxifylline], for which the IC50 on AfChiB1 [1] (setting [9]) was 126 µM; on human chitotriosidase, 98 µM; in experiment [2], 881 ± 319 µM; in experiment [6] (setting [11]), 400 µM; at H.AMCase (human AMCase) (setting [12]), 400 µM; on M.AMCase (mouse AMCase) (setting [13]) it was 400 µM. Also, in experiment [4] (setting [14]), the IC50 is approximately 1000 µM. The Ki at AfChiB1 [1] (competitive inhibitor, 5-30 μM substrate, fit to competitive inhibition equation) worked out at 37 µM. The same compound displayed a Kd on AfChiB1 [5] of 43 ± 10 µM. Moreover, on human AMCase, the “hAMCase activity at 1 mM” value is listed as 49%. Moreover, in experiment [3], the “Egg white lysozyme activity at 500 μM” value worked out at 100%. Moreover, the “inhibition of human phosphodiesterase-4” value in experiment [7] is reported as “barely detectable”.
For `C=CCn1c(=O)n(CCCn2c(=O)c3c(ncn3C)n(C)c2=O)c(=O)c2c1ncn2C` [Compound 11], on AfChiB1 [1] (setting [8]), the half-inhibitory concentration (IC50) was 0.14 µM.
`CCn1c(=O)n(CCCn2c(=O)c3c(ncn3C)n(C)c2=O)c(=O)c2c1ncn2C` [Compound 10]: at AfChiB1 [1] (setting [8]), the IC50 was determined as 0.31 µM.
Same read-out and setting: then `Cn1cnc2c1c(=O)n(CCCn1c(=O)c3c(ncn3C)n(CCCO)c1=O)c(=O)n2C` [Compound 16], with 0.44 µM.
Turning to `Cn1cnc2c1c(=O)n(CCCn1c(=O)c3c(ncn3CCCC(=O)O)n(C)c1=O)c(=O)n2C` [Compound 21], on AfChiB1 [1] (setting [10]), the IC50 came to 0.2 µM.
On the same count and under the same terms, then `Cn1cnc2c1c(=O)n(CCCn1c(=O)c3c(ncn3CCC(=O)O)n(C)c1=O)c(=O)n2C` [Compound 19], with 0.16 µM; and `Cn1cnc2c1c(=O)n(CCCn1c(=O)c3nc[nH]c3n(C)c1=O)c(=O)n2C` [Compound 17], with 0.2 µM.
Turning to `Cn1cnc2c1c(=O)n(CCCn1c(=O)c3c(ncn3C)n(C)c1=O)c(=O)n2C` [Compound 2], on AfChiB1 [1], the 50% inhibitory concentration (IC50) was 0.23 µM.
Turning to `COC(=O)CCCCn1cnc2c1c(=O)n(CCCn1c(=O)c3c(ncn3C)n(C)c1=O)c(=O)n2C` [Compound 22], the 50% inhibitory concentration (IC50) at AfChiB1 [1] (setting [10]) is 0.3 µM.
Regarding `Cn1c(=O)c2c(ncn2C)n(C)c1=O` [caffeine], the IC50 worked out at 257 ± 8 µM on human chitotriosidase; 1250 ± 278 µM in experiment [2]; 650 µM in [6] (H.Chito Bio pH 5.2 (IC50), Bio substrate); 850 µM in experiment [6] (setting [11]); 500 µM on H.AMCase (human AMCase) (setting [12]); 800 µM on M.AMCase (mouse AMCase) (setting [13]). Besides, the half-maximal inhibitory concentration (IC50) in experiment [4] (setting [14]) is more than 1000 µM. Moreover, the “hAMCase activity at 1 mM” value at human AMCase is 36%. Moreover, the “Egg white lysozyme activity at 500 μM” value in [3] is listed as 100%.
Take `Cn1cnc2c1c(=O)n(CCn1c(=O)c3c(ncn3C)n(C)c1=O)c(=O)n2C` [Compound 1]: the IC50 on AfChiB1 [1] was 6 µM.
Consider `Cn1cnc2c1c(=O)n(CCCn1c(=O)c3c(ncn3C)n(CCO)c1=O)c(=O)n2C` [Compound 14], for which the IC50 on AfChiB1 [1] (setting [8]) worked out at 0.18 µM.
In the case of `Cn1cnc2c1c(=O)n(CCCCn1c(=O)c3c(ncn3C)n(C)c1=O)c(=O)n2C` [Compound 3], on AfChiB1 [1], the IC50 is 6 µM.
On to `Cn1cnc2c1c(=O)n(CCCn1c(=O)c3c(ncn3CC=CC(=O)O)n(C)c1=O)c(=O)n2C` [Compound 25], for which the IC50 at AfChiB1 [1] (setting [10]) was determined as 0.42 µM.

For the origin of these results see patent US8207175B2, “Inhibitor compounds” (University Court of the University of Dundee, priority 2005, dated 2012).
